The text below walks through data of US20080200404A1, “Novel Antimalarial 9A-Carbamoyl-Aminoalkyl and 9A-Thiocarbamoyl-Aminoalkyl Azalides” (priority 2005, published 2008).

Converted amounts (≈) assume the structure as drawn.

For experiment [1], the system named is Plasmodium falciparum clone CDC/Indochina III (W-2). Briefly: In vitro antimalarial [3H]-hypoxanthine incorporation serial dilution assay, W2. The format is cell-based. Conditions: P. falciparum W2, 72 hours exposure; for IC50: Plasmodium falciparum. A digest of the protocol:
(§1)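 Blood-stage cultures in RPMI-1640 with 6% A+ erythrocytes and human plasma or ALBUMAX, 37° C under 5% CO2/5% O2. Compounds in two-fold dilutions over 11 concentrations; [3H]-hypoxanthine incorporation after 72 h total incubation, CPM normalised to untreated parasite controls; IC50 by non-linear logistic fit.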

In experiment [2] the test system is Plasmodium falciparum clone CDC/Sierra Leone I (D-6). Briefly: In vitro antimalarial [3H]-hypoxanthine incorporation serial dilution assay, D6. The format is cell-based. As to conditions: P. falciparum D6, 72 hours exposure; for IC50: Plasmodium falciparum, D6, 72 h, read-out: IC50 D6. A digest of the protocol:
as §1

Experiment [3] concerns Plasmodium falciparum TM91C235. Briefly: In vitro antimalarial [3H]-hypoxanthine incorporation assay, TM91C235. The format is cell-based. As to conditions: P. falciparum TM91C235 (multiple drug resistant isolate), 72 hours exposure; for IC50: Plasmodium falciparum. A digest of the protocol: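 Multidrug-resistant P. falciparum TM91C235 was run at 0.4% parasitemia and 1% hematocrit in folate/PABA-free RPMI-1640 with ALBUMAX, at 37° C under 5% CO2/5% O2. Compound was tested in duplicate at 25,000, 2,500 and 25 ng/ml, preexposed 48 h, then [3H]-hypoxanthine was added (72 h total). Counts are expressed relative to untreated parasite controls.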

A further experiment has as its system Plasmodium falciparum. Conditions: non-immune patients, as compared to controls; cited from earlier work.
The test system of a further experiment is Plasmodium cynomolgi. Conditions: rhesus monkey; cited from earlier work.
The test system of the next experiment is Plasmodium vivax. As to conditions: non-immune patients, as compared to controls; cited from earlier work.
In experiment [4] the test system is Plasmodium yoelli nigeriensis. Conditions: cited from earlier work.
Another experiment deals with Plasmodium berghei. As to conditions: cited from earlier work.

In general, IC50 refers to the concentration needed to halve the response being measured. With `CC[C@H]1OC(=O)[C@H](C)[C@@H](O[C@H]2C[C@@](C)(OC)[C@@H](O)[C@H](C)O2)[C@H](C)[C@@H](O[C@@H]2O[C@H](C)C[C@H](N(C)C)[C@H]2O)[C@](C)(O)C[C@@H](C)CN(CCCNC(=S)Nc2sc3c(c2C(=O)OC)CCCC3)[C@H](C)[C@@H](O)[C@]1(C)O` [Example 148], the IC50 was found to be 0.24 µg/mL (≈ 0.229 µM) in experiment [1], 0.862 µg/mL (≈ 0.825 µM) in experiment [2] and 0.426 µg/mL (≈ 0.407 µM) in experiment [3].
The matching figures for `CC[C@H]1OC(=O)[C@H](C)[C@@H](O[C@H]2C[C@@](C)(OC)[C@@H](O)[C@H](C)O2)[C@H](C)[C@@H](O[C@@H]2O[C@H](C)C[C@H](N(C)C)[C@H]2O)[C@](C)(O)C[C@@H](C)CN(CCCNC(=S)NCC(C)C)[C@H](C)[C@@H](O)[C@]1(C)O.O=CO` [Example 149]: 0.472 µg/mL, 0.657 µg/mL and 0.414 µg/mL.
On to `CC[C@H]1OC(=O)[C@H](C)[C@@H](O[C@H]2C[C@@](C)(OC)[C@@H](O)[C@H](C)O2)[C@H](C)[C@@H](O[C@@H]2O[C@H](C)C[C@H](N(C)C)[C@H]2O)[C@](C)(O)C[C@@H](C)CN(CCCNC(=S)Nc2cccc3nsnc23)[C@H](C)[C@@H](O)[C@]1(C)O.O=CO` [Example 150], for which the IC50 in experiment [1] is 0.091 µg/mL; in experiment [2] it was 0.181 µg/mL; in experiment [3], 0.105 µg/mL.
The matching figures for `CC[C@H]1OC(=O)[C@H](C)[C@@H](O[C@H]2C[C@@](C)(OC)[C@@H](O)[C@H](C)O2)[C@H](C)[C@@H](O[C@@H]2O[C@H](C)C[C@H](N(C)C)[C@H]2O)[C@](C)(O)C[C@@H](C)CN(CCCNC(=S)NC2CC3C=CC2C3)[C@H](C)[C@@H](O)[C@]1(C)O.O=CO` (stereo partly drawn) [Example 151]: 0.171 µg/mL, 0.299 µg/mL and 0.181 µg/mL.
In the same order, the values of `CCNC(=O)NCCN1C[C@H](C)C[C@@](C)(O)[C@H](O[C@@H]2O[C@H](C)C[C@H](N(C)C)[C@H]2O)[C@@H](C)[C@H](O[C@H]2C[C@@](C)(OC)[C@@H](O)[C@H](C)O2)[C@@H](C)C(=O)O[C@H](CC)[C@@](C)(O)[C@H](O)[C@H]1C` [Example 158, 9-Deoxo-9-dihydro-9a-[N′-(ethyl)carbamoyl-β-amino-ethyl]-9a-aza-9a-homoerythromycin A] are 0.405 µg/mL (≈ 0.476 µM), 0.167 µg/mL (≈ 0.197 µM) and 0.103 µg/mL (≈ 0.121 µM).
In the same order, the values of `CC[C@H]1OC(=O)[C@H](C)[C@@H](O[C@H]2C[C@@](C)(OC)[C@@H](O)[C@H](C)O2)[C@H](C)[C@@H](O[C@@H]2O[C@H](C)C[C@H](N(C)C)[C@H]2O)[C@](C)(O)C[C@@H](C)CN(CCCN(CCC(N)=O)C(=S)NCCc2ccccc2)[C@H](C)[C@@H](O)[C@]1(C)O` [Example 166, 9-Deoxo-9-dihydro-9a-{N′-(β-amidoethyl)-N′-[β-(phenylethyl)thiocarbamoyl]-γ-aminopropyl}-9a-aza-9a-homoerythromycin A] are 0.23 µg/mL (≈ 0.224 µM), 0.458 µg/mL (≈ 0.446 µM) and 0.161 µg/mL (≈ 0.157 µM).
As for `CC[C@H]1OC(=O)[C@H](C)[C@@H](O[C@H]2C[C@@](C)(OC)[C@@H](O)[C@H](C)O2)[C@H](C)[C@@H](O[C@@H]2O[C@H](C)C[C@H](N(C)C)[C@H]2O)[C@](C)(O)C[C@@H](C)CN(CCCN(CCC(N)=O)C(=O)Nc2ccc(Cl)cc2Cl)[C@H](C)[C@@H](O)[C@]1(C)O` [Example 169, 9-Deoxo-9-dihydro-9a-[N′-(β-amidoethyl)-N′-(2,4-dichlorophenyl)carbamoyl-γ-aminopropyl]-9a-aza-9a-homoerythromycin A], the “IC50 W2” value in experiment [1] worked out at 0.188 µg/mL (≈ 0.179 µM). Further, the “IC50 D6” value in experiment [2] is 0.2266 µg/mL (≈ 0.216 µM). The “IC50 TM91C235” value in experiment [3] turned out to be 0.1475 µg/mL (≈ 0.14 µM).
`CC[C@H]1OC(=O)[C@H](C)[C@@H](O[C@H]2C[C@@](C)(OC)[C@@H](O)[C@H](C)O2)[C@H](C)[C@@H](O[C@@H]2O[C@H](C)C[C@H](N(C)C)[C@H]2O)[C@](C)(O)C[C@@H](C)CN(C)[C@H](C)[C@@H](O)[C@]1(C)O` [azithromycin]: in the experiment with Plasmodium falciparum, the “prophylactic efficacy for Plasmodium falciparum” value is given as 71.6%. The “efficacy in monkey model” value in the experiment with Plasmodium cynomolgi is on record as “active”. The “prophylactic efficacy for Plasmodium vivax” value in the experiment with Plasmodium vivax is 98.9%.
Regarding midecamycinin, the “activity in mouse model” value (in experiment [4]; in the experiment on Plasmodium berghei) was “active” throughout. Further, in the experiment on Plasmodium cynomolgi, the “efficacy in monkey model” value is recorded as “no efficacy”.
